Biological target: ERα (estrogen receptor α) (Homo sapiens, UniProt P03372)
Test: competitive radioligand binding assay with tritiated […]β-estradiol on recombinant hERα
Set-up: gene ESR1; recombinant hERα

Sequence of ERα (estrogen receptor α) (P03372 whole entry): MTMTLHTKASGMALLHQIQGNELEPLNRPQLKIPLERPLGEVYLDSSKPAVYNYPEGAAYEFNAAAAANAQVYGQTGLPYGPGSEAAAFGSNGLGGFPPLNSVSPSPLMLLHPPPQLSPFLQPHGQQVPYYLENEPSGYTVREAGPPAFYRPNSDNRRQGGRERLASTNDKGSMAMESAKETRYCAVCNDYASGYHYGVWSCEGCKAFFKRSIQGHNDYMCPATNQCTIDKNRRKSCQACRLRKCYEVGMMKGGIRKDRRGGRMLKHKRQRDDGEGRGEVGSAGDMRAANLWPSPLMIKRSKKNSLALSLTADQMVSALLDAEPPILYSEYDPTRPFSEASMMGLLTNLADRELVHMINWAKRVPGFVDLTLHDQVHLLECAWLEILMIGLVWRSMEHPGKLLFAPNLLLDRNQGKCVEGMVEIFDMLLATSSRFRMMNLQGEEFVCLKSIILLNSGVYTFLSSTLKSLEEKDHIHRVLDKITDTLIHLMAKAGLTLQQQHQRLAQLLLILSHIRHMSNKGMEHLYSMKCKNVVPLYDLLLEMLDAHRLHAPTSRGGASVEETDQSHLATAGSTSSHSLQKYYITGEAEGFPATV

Row | SMILES | Ki
1 | C[C@]12CC[C@@H]3c4ccc(O)cc4CC[C@H]3[C@@H]1CC[C@@]2(O)C#Cc1cc(CN(CC(=O)[O-])CC(=O)[O-])nc(CN(CC(=O)[O-])CC(=O)[O-])c1.[Gd+3].[Na+] [EPTA-Gd] | 970 ± 70 nM
2 | CC/C(=C(\c1ccc(C#Cc2cc(CN(CC(=O)[O-])CC(=O)[O-])nc(CN(CC(=O)[O-])CC(=O)[O-])c2)cc1)c1ccc(OCCN(C)C)cc1)c1ccccc1.[Gd+3].[Na+] [TPTA-Gd] | 130 ± 6 nM

From publication PMC4846659, “Estrogen Receptor-Targeted Contrast Agents for Molecular Magnetic Resonance Imaging of Breast Cancer Hormonal Status” (Frontiers in Oncology, 2016)
